# Test results from patent US4740233A, “Substituted 1,2,4-triazolo[1,5-a]-pyrimidine-2-sulfonamides and compositions and methods of controlling undesired vegetation and suppressing the nitrification of ammonium nitrogen in soil” (The Dow Chemical Company, priority 1986, dated 1988).
# Tests used:
# [1] = system: nitrification of ammonium nitrogen; experiment: Suppression of nitrification of ammonium nitrogen in soil; details: 27° C.
# Procedure, shortened: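 Soil (20 g) moistened to its 1/3 bar tension value, mixed with test chemical and incubated sealed for two weeks at 27° C. Nitrate extracted with ammonium sulfate solution and measured by nitrate-specific ion electrode; value given as % NH4-N remaining.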
# [2] = system: annual sugar beet variety (SLC03); experiment: Plant growth regulator activity, preemergence; assay type: in vivo; details: for minimal effective concentration: Beta vulgaris, pre-emergence, 6-7 weeks, read-out: Bolting Inhibition (preemergence), concentration with observed effect; for observed effect (preemergence): 400 ppm
# Text: Using a regular biennial variety, even a bolting-susceptible variety would require a cold treatment of around 10-16 weeks plus a hormone treatement in conjunction with specific light intensities. Thus, for a screening organism, we selected one which would consistently produce bolting on a regular schedule. The screen is run with an annual sugar beet variety (SLC03) provided by Dr. Richard J. Hecker, Fort Collins, Colo. This variety is an inbred which bolts in the 6- to 8-leaf stage without any need for vernalization. This allows the screen to be run entirely in the greenhouse with all 110 chemical compounds tested on one tray. The sugarbeets are grown in 3×3 inch square pots in a greenhouse sandy loam potting mix. The sugarbeets are sprayed with test compounds when they are 2 to 3 weeks old (2 true leaves). The compounds are dissolved in acetone and diluted with water containing Tween 20 as a wetting agent. The concentration of acetone in the final spray is 20% and the concentration of Tween 20 is 0.05 percent. The plants are examined for the appearance of a bolt 4 weeks after spraying.
# Preemergence tests are conducted by spraying formulated chemical on seeds placed on potting soil. The sprayed seeds are then covered with 1/4 inch of potting soil and the pots are watered. Bolting is evaluated 6-7 weeks after the initiation of the test. At this time untreated plants have a vigorous bolting stem with visible flowers.
# pigweed = experiment: Preemergent control of plant species; assay type: in vivo, Amaranthus spp.; details: Amaranthus retroflexus, pre-emergence, 336 h; 0.25 lb/acre; read-out: percent preemergent control
# Procedure, shortened: (§1)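 Growth reduction relative to untreated plants of the same species, assessed two weeks after treatment, defines the control value. Compositions, mostly aqueous emulsions, were deposited uniformly on seeded greenhouse soil beds at the tabulated rates, with a water-treated bed as reference.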
# cotton = experiment: Preemergent control of plant species; assay type: in vivo, Gossypium spp.; details: Gossypium hirsutum, pre-emergence, 336 h; 0.25 lb/acre; read-out: percent preemergent control
# Procedure, shortened: as §1
# barnyardgrass [3] = experiment: Control of aquatic plant species (paddy water); assay type: in vivo, Echinochloa crusgalli; details: Echinochloa crus-galli, 216 h, nine days, read-out: Percent control
# Procedure: In testing for such utility, the plant species to be tested were transplanted into 16 oz. containers into about 2 inches of soil when they were in the 1-2 inch stage and then flooded to a depth of about 1 inch. An acetone concentrate of the chemical to be tested was then injected into the paddy water, the volume injected being varied as desired to provide the desired concentration. Percent control was evaluated nine days after application.
# rice [4] = experiment: Preemergent control of plant species; assay type: in vivo, Oryza sativa; details: Oryza sativa, pre-emergence, 336 h; 0.25 lb/acre; read-out: percent preemergent control
# Procedure, shortened: as §1
# rape = experiment: Preemergent control of plant species; assay type: in vivo, Brassica napus; details: Brassica napus, pre-emergence, 336 h; 0.25 lb/acre; read-out: percent preemergent control
# Procedure, shortened: as §1
# sorghum = experiment: Preemergent control of plant species; assay type: in vivo, Sorghum vulgare; details: Sorghum, pre-emergence, 336 h; 0.25 lb/acre; read-out: percent preemergent control
# Procedure, shortened: as §1
# corn = experiment: Preemergent control of plant species; assay type: in vivo, Zea mays; details: Zea mays, pre-emergence, 336 h; 0.25 lb/acre; read-out: percent preemergent control
# Procedure, shortened: as §1
# jimsonweed = experiment: Preemergent control of plant species; assay type: in vivo, Datura stramonium; details: Datura stramonium, pre-emergence, 336 h; 0.25 lb/acre; read-out: percent preemergent control
# Procedure, shortened: as §1
# soybean = experiment: Preemergent control of plant species; assay type: in vivo, Glycine max.; details: Glycine max, pre-emergence, 336 h; 0.25 lb/acre; read-out: percent preemergent control
# Procedure, shortened: as §1
# crabgrass = experiment: Preemergent control of plant species; assay type: in vivo, Digitaria spp.; details: Digitaria sanguinalis, pre-emergence, 336 h; 0.25 lb/acre; read-out: percent preemergent control
# Procedure, shortened: as §1
# yellow nutsedge [5] = experiment: Control of aquatic plant species (paddy water); assay type: in vivo, Cyperus esculentus; details: Cyperus, 216 h, nine days, read-out: Percent control
# Procedure, shortened: (§2)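 1-2 inch plants transplanted into ~2 in soil, flooded ~1 in deep; acetone concentrate injected into floodwater, volume adjusted for target concentration; % control scored at 9 days.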
# wild oats = experiment: Preemergent control of plant species; assay type: in vivo; details: Avena fatua, pre-emergence, 336 h; 0.25 lb/acre; read-out: percent preemergent control
# Procedure, shortened: as §1
# johnson grass = experiment: Preemergent control of plant species; assay type: in vivo, Sorghum halepense; details: Sorghum halepense, pre-emergence, 336 h; 0.25 lb/acre; read-out: percent preemergent control
# Procedure, shortened: as §1
# rice [6] = experiment: Control of aquatic plant species (paddy water); assay type: in vivo, Oryza sativa; details: Oryza sativa, 216 h, nine days, read-out: Percent control
# Procedure, shortened: as §2
# sugar beet = experiment: Preemergent control of plant species; assay type: in vivo, Beta saccharifera; details: Beta vulgaris, pre-emergence, 336 h; 0.25 lb/acre; read-out: percent preemergent control
# Procedure, shortened: as §1
# sprangletop = experiment: Control of aquatic plant species (paddy water); assay type: in vivo, Leptochloa filiformis; details: Leptochloa filiformis, 216 h, nine days, read-out: Percent control
# Procedure, shortened: as §2
# wheat = experiment: Preemergent control of plant species; assay type: in vivo, Triticum aestivum; details: Triticum aestivum, pre-emergence, 336 h; 0.25 lb/acre; read-out: percent preemergent control
# Procedure, shortened: as §1
# barnyardgrass [7] = experiment: Preemergent control of plant species; assay type: in vivo, Echinochloa crusgalli; details: Echinochloa crus-galli, pre-emergence, 336 h; 0.25 lb/acre; read-out: percent preemergent control
# Procedure, shortened: as §1
# velvetleaf = experiment: Preemergent control of plant species; assay type: in vivo, Abutilon theophrasti; details: Abutilon theophrasti, pre-emergence, 336 h; 0.25 lb/acre; read-out: percent preemergent control
# Procedure, shortened: as §1
# annual morning glory = experiment: Preemergent control of plant species; assay type: in vivo, Ipomoea spp.; details: Ipomoea, pre-emergence, 336 h; 0.25 lb/acre; read-out: percent preemergent control
# Procedure, shortened: as §1
# yellow foxtail = experiment: Preemergent control of plant species; assay type: in vivo, Setaria lutescens; details: Setaria, pre-emergence, 336 h; 0.25 lb/acre; read-out: percent preemergent control
# Procedure, shortened: as §1
# yellow nutsedge [8] = experiment: Preemergent control of plant species; assay type: in vivo, Cyperus esculentus; details: Cyperus, pre-emergence, 336 h; 0.25 lb/acre; read-out: percent preemergent control
# Procedure, shortened: as §1
smiles,measurement,setting,value
Cc1cc(C)n2nc(S(=O)(=O)Nc3ccccc3C#N)nc2n1 [Compound 14],% NH4-N Remaining After 2 Weeks Incubation,[1]; 0.01 ppm,0%
same,% NH4-N Remaining After 2 Weeks Incubation,[1]; 0.1 ppm,10%
same,% NH4-N Remaining After 2 Weeks Incubation,[1]; 1 ppm,52%
same,% NH4-N Remaining After 2 Weeks Incubation,[1]; 10 ppm,77%
same,minimal effective concentration,[2],400 µg/mL
CCN(C)S(=O)(=O)c1ccccc1NS(=O)(=O)c1nc2nc(C)cc(C)n2n1 [Compound 16],% NH4-N Remaining After 2 Weeks Incubation,[1]; 0.01 ppm,0%
same,% NH4-N Remaining After 2 Weeks Incubation,[1]; 0.125 ppm,0%
same,% NH4-N Remaining After 2 Weeks Incubation,[1]; 1 ppm,26%
same,% NH4-N Remaining After 2 Weeks Incubation,[1]; 10 ppm,67%
same,minimal effective concentration,[2],400 µg/mL
Cc1cc(C)n2nc(S(=O)(=O)Nc3cc(C(F)(F)F)ccc3Cl)nc2n1 [Compound 52],% NH4-N Remaining After 2 Weeks Incubation,[1]; 0.01 ppm,0%
same,% NH4-N Remaining After 2 Weeks Incubation,[1]; 0.1 ppm,39%
same,% NH4-N Remaining After 2 Weeks Incubation,[1]; 1 ppm,74%
same,% NH4-N Remaining After 2 Weeks Incubation,[1]; 10 ppm,91%
same,minimal effective concentration,[2],100 µg/mL
C=CCSc1ccccc1NS(=O)(=O)c1nc2nc(C)cc(C)n2n1 [Compound 66],% NH4-N Remaining After 2 Weeks Incubation,[1]; 0.06 ppm,0%
same,% NH4-N Remaining After 2 Weeks Incubation,[1]; 0.25 ppm,41%
same,% NH4-N Remaining After 2 Weeks Incubation,[1]; 1 ppm,66%
same,% NH4-N Remaining After 2 Weeks Incubation,[1]; 4 ppm,78%
same,minimal effective concentration,[2],400 µg/mL
Cc1cc(C)n2nc(S(=O)(=O)Nc3ccccc3C(=O)c3ccccc3)nc2n1 [Compound 95],% NH4-N Remaining After 2 Weeks Incubation,[1]; 0.06 ppm,26%
same,% NH4-N Remaining After 2 Weeks Incubation,[1]; 0.25 ppm,36%
same,% NH4-N Remaining After 2 Weeks Incubation,[1]; 1 ppm,53%
same,% NH4-N Remaining After 2 Weeks Incubation,[1]; 4 ppm,67%
same,minimal effective concentration,[2],400 µg/mL
Cc1nc2nc(S(=O)(=O)Nc3c(Cl)cccc3Cl)nn2c(C)c1C [Compound 111],pest or weed control at 280.212 g/ha,pigweed,50%
same,plant injury at 280.212 g/ha,cotton,20%
same,pest or weed control at 4000 g/ha,barnyardgrass [3]; 4.0 Kg/Ha,99%
same,plant injury at 280.212 g/ha,rice [4],65%
same,plant injury at 280.212 g/ha,rape,95%
same,plant injury at 280.212 g/ha,sorghum,65%
same,plant injury at 280.212 g/ha,corn,35%
same,pest or weed control at 280.212 g/ha,jimsonweed,95%
same,plant injury at 280.212 g/ha,soybean,10%
same,pest or weed control at 280.212 g/ha,crabgrass,90%
same,pest or weed control at 4000 g/ha,yellow nutsedge [5]; 4.0 Kg/Ha,99%
same,% NH4-N Remaining After 2 Weeks Incubation,[1]; 0.06 ppm,22%
same,% NH4-N Remaining After 2 Weeks Incubation,[1]; 0.25 ppm,60%
same,% NH4-N Remaining After 2 Weeks Incubation,[1]; 1 ppm,69%
same,% NH4-N Remaining After 2 Weeks Incubation,[1]; 4 ppm,92%
same,pest or weed control at 280.212 g/ha,wild oats,0%
same,pest or weed control at 280.212 g/ha,johnson grass,75%
same,pest or weed control at 4000 g/ha,rice [6]; 4.0 Kg/Ha,93%
same,plant injury at 280.212 g/ha,sugar beet,90%
same,pest or weed control at 4000 g/ha,sprangletop; 4.0 Kg/Ha,80%
same,plant injury at 280.212 g/ha,wheat,0%
same,pest or weed control at 280.212 g/ha,barnyardgrass [7],15%
same,pest or weed control at 280.212 g/ha,velvetleaf,80%
same,pest or weed control at 280.212 g/ha,annual morning glory,20%
same,pest or weed control at 280.212 g/ha,yellow foxtail,30%
same,pest or weed control at 280.212 g/ha,yellow nutsedge [8],93%
CCN(C)S(=O)(=O)c1ccccc1NS(=O)(=O)c1nc2ncc(Cl)cn2n1 [Compound 132],minimal effective concentration,[2],400 µg/mL
O=S(=O)(Nc1ccccc1F)c1nc2ncc(Cl)cn2n1 [Compound 133],observed effect (preemergence),[2],stunting
same,minimal effective concentration,[2],400 µg/mL
CSc1cccc(NS(=O)(=O)c2nc3ncc(Cl)cn3n2)c1 [Compound 134],observed effect (preemergence),[2],stunting
same,minimal effective concentration,[2],400 µg/mL
"Cc1ccn2nc(S(=O)(=O)Nc3c(Cl)cccc3Cl)nc2n1 [Compound 143, 5-Methyl-N-(2,6-dichlorophenyl)-1,2,4-triazolo[1,5-a]pyrimidine-2-sulfonamide]",pest or weed control at 280.212 g/ha,pigweed,100%
same,plant injury at 280.212 g/ha,cotton,100%
same,pest or weed control at 31 g/ha,barnyardgrass [3]; 0.031 Kg/Ha,95%
same,pest or weed control at 500 g/ha,barnyardgrass [3]; 0.5 Kg/Ha,99%
same,plant injury at 280.212 g/ha,rice [4],97%
same,plant injury at 280.212 g/ha,rape,95%
same,plant injury at 280.212 g/ha,sorghum,99%
same,plant injury at 280.212 g/ha,corn,95%
same,pest or weed control at 280.212 g/ha,jimsonweed,100%
same,plant injury at 280.212 g/ha,soybean,70%
same,pest or weed control at 280.212 g/ha,crabgrass,100%
same,pest or weed control at 31 g/ha,yellow nutsedge [5]; 0.031 Kg/Ha,93%
same,pest or weed control at 500 g/ha,yellow nutsedge [5]; 0.5 Kg/Ha,97%
same,% NH4-N Remaining After 2 Weeks Incubation,[1]; 0.01 ppm,50%
same,% NH4-N Remaining After 2 Weeks Incubation,[1]; 0.1 ppm,78%
same,% NH4-N Remaining After 2 Weeks Incubation,[1]; 1 ppm,91%
same,% NH4-N Remaining After 2 Weeks Incubation,[1]; 10 ppm,100%
same,pest or weed control at 280.212 g/ha,wild oats,50%
same,pest or weed control at 280.212 g/ha,johnson grass,100%
same,pest or weed control at 31 g/ha,rice [6]; 0.031 Kg/Ha,0%
same,pest or weed control at 500 g/ha,rice [6]; 0.5 Kg/Ha,95%
same,plant injury at 280.212 g/ha,sugar beet,100%
same,pest or weed control at 31 g/ha,sprangletop; 0.031 Kg/Ha,0%
same,pest or weed control at 500 g/ha,sprangletop; 0.5 Kg/Ha,97%
same,plant injury at 280.212 g/ha,wheat,50%
same,pest or weed control at 280.212 g/ha,barnyardgrass [7],97%
same,pest or weed control at 280.212 g/ha,velvetleaf,97%
same,pest or weed control at 280.212 g/ha,annual morning glory,90%
same,pest or weed control at 280.212 g/ha,yellow foxtail,97%
same,pest or weed control at 280.212 g/ha,yellow nutsedge [8],100%
Cc1nc2nc(S(=O)(=O)Nc3ccccc3Cl)nn2c(C)c1Cl [Compound 198],% NH4-N Remaining After 2 Weeks Incubation,[1]; 0.06 ppm,22%
same,% NH4-N Remaining After 2 Weeks Incubation,[1]; 0.25 ppm,37%
same,% NH4-N Remaining After 2 Weeks Incubation,[1]; 1 ppm,53%
same,% NH4-N Remaining After 2 Weeks Incubation,[1]; 4 ppm,74%
same,observed effect (preemergence),[2],stunting
same,minimal effective concentration,[2],400 µg/mL
